In article PMC6337261, “Short Peptides with Uncleavable Peptide Bond Mimetics as Photoactivatable Caspase-3 Inhibitors” (Molecules, 2019):

Experiments:
caspase-3 [1] = test: Competitive ABPP with ψ(CH2NH) peptides irradiated in presence of spiked-in benzophenone; format: biochemical; details: for Inhibition of caspase-3 after irradiation with benzophenone: irradiated in presence of an equimolar amount (1 eq) of benzophenone
Description: (§1) The presence of a ψ(CH2NH) peptide with benzophenone or UV irradiation alone was not sufficient for inhibition, but all needed to be present to block the caspase-3 active site (Figure 3G,H). We hypothesized that the active species is a peptide aldehyde, formed by oxidation of the ψ(CH2NH) moiety (see also discussion in Section 3). To support this hypothesis, we performed an experiment in which this aldehyde was trapped by sodium bisulfite, forming a sodium bisulfite adduct.
(§2) Although this points towards a cyclization rather than reaction with a water molecule, it is not clear whether it leads to a potent caspase inhibitor. […] Therefore, cyclization seemed improbable, as this would most likely lead to a shift in retention time. We hypothesized that irradiation could potentially lead to oxidation of a very small amount of the ψ(CH2NH) moiety with benzophenone as a photosensitizer, resulting in minute quantities of aldehydes that were not detected on LC-MS, but were sufficient for caspase-3 inhibition. Oxidation of secondary amines under influence of benzophenone has been reported before. […] Note that triazoles cannot undergo this transformation, further explaining their inactivity. The oxidation hypothesis was supported by an experiment in which ψ(CH2NH) peptides 14 and 15, not containing a benzophenone, were irradiated in the presence of 1 eq of spiked-in benzophenone (Figure 3G–I).
Caspase-3, produced in E. coli and purified as described before, was reacted in PBS with 1 mM DTT. Samples were combined with the indicated probe and irradiated with a handheld UV lamp at 365 nm for 30 min at room temperature. […]
Figure 3 Non-covalent inhibition of caspase-3 by compounds 9 and 10. […] (G) UV irradiation of ψ(CH2NH) peptides 14 and 15 in the presence of benzophenone leads to inhibition of caspase-3, as monitored by competitive ABPP. […] Ac-DEVD-aldehyde (100 nM) was used as a control compound, whereas 9a and 10a (10 μM) were irradiated for 10 min and reacted with sodium bisulfite for an additional 20 min before 30 min incubation with caspase-3 and read-out with a fluorescent caspase ABP.

caspase-3 [2] = test: Gel-based competitive ABPP on recombinant caspase-3; format: biochemical; details: for Inhibition of caspase-3 activity (caspase ABP labeling): PBS with 1 mM DTT, fluorescent ABP read-out on gel; for Inhibition of caspase-3 (competitive ABPP, Figure S1): triazolo peptides at 100 μM
Protocol: (§3) To check whether our probes function as inhibitors, competitive ABPP [28] was performed. Recombinant caspase-3 was incubated with probes 9a–10c, 11a and 12a with or without irradiation at 365 nm, followed by labeling of residually active caspase-3 with the fluorescent, caspase-directed activity-based probe (ABP) SV149, a tetramethylrhodamine derivative of KMB-01 [29]. Caspase activity itself was not affected by UV irradiation, as shown by bands of equal intensity with and without UV light (Figure 2A). […] To confirm inhibition, we also performed substrate cleavage assays using the fluorogenic aminomethyl coumarin substrate Ac-DEVD-AMC. […] Inhibition of active caspases could also be achieved in an apoptotic cell lysate (Figure 2D).
(§4) Caspase-3, produced in E. coli and purified as described before, was reacted in PBS with 1 mM DTT. Samples were combined with the indicated probe and irradiated with a handheld UV lamp at 365 nm for 30 min at room temperature. For competition experiments with ‘pre-activation,’ the indicated probes were irradiated for 30 min prior to addition to caspase-3, and incubated for an additional 30 min. Next, ABP 13 was added (final concentration 1 μM) to label residual caspase-3 activity. The samples were incubated for 30 min at room temperature, after which 1/3rd volume of 4× Laemmli buffer was added. Samples were heated at 95 °C for 2 min and resolved by 15% SDS-PAGE. Gels were scanned using a Typhoon Trio+ fluorescent scanner with excitation at 532 nm and an emission filter of 580 nm. Gel images were processed with ImageJ (background subtraction with rolling ball radius of 50 pixels and automated contrast adjustment).
(§5) Figure 2 Inhibition of caspase-3. (A) Competitive activity-based protein profiling (ABPP) experiments using ψ(CH2NH) or triazolo peptide derivatives 9–12 with or without irradiation. Compounds 9a–12a were used at 10 μM final concentration, 9b, 9c, 10b and 10c at 100 μM. Inh = caspase inhibitor biotin-DEVD-AOMK, used at 100 nM concentration. (B) Representative progress curves of fluorescence produced by Ac-DEVD-AMC (50 μM) cleavage by caspase-3, irradiated with or without 10 μM of the indicated compounds. (C) Bar graph of residual caspase-3 activity of replicate experiments (n = 2) of those in (B). (D) Inhibition of executioner’s caspase-3 and -7 in lysates of HEK293 cells, treated with cytochrome c/dATP to induce apoptosis.

caspase-3 [3] = test: Fluorogenic substrate (Ac-DEVD-AMC) cleavage assay; format: biochemical; details: 10 μM compound, 2 nM caspase-3, 50 μM Ac-DEVD-AMC, HEPES pH 7.4 with 10 mM DTT, n = 2
Protocol: as §3
Purified caspase-3 (2 nM) was pre-activated by incubating in caspase reaction buffer (20 mm HEPES pH 7.4, 100 mM NaCl, 1 mM EDTA, 10% sucrose (w/v), 0.1% CHAPS (w/v), 10 mM DTT) for 15 min at 37 °C. Inhibitors 9a, 10a, and DMSO (control) were incubated with the caspase-3 at 10 μM final concentration. One set was irradiated with a handheld UV lamp at 365 nm for 30 min at room temperature whereas the control set was not irradiated. After 30 min, 99 μL of the sample was added to 1 μL of Ac-DEVD-AMC fluorogenic substrate (5 mM in dmso; 50 μM final concentration) in a black 96 well plate. The fluorescence intensity was read using an iD3 SpectraMax platereader (Molecular Devices; excitation wavelength: 340 nm; emission wavelength: 475 nm). The experiment was performed in duplicate. Activity was determined as the slope from the linear part of the progress curve by using GraphPad Prism.
as §5

caspase-3 [4] = test: Competitive ABPP with UV pre-activation of the probes; format: biochemical; details: compound irradiated at 365 nm for 30 min, light source removed, then added to caspase-3 for 30 min; fluorescent ABP read-out
Protocol: (§6) Compounds were irradiated with UV light of 365 nm for 30 min and after removal of the light source added to caspase-3. Residual caspase activity was measured by using a fluorescent caspase ABP as in our previous experiments above.
as §4
(§7) Figure 3 Non-covalent inhibition of caspase-3 by compounds 9 and 10. (A) Fluorescent labeling of caspase-3 by ψ(CH2NH) peptides 9–10 and triazolo peptides 11–12. […] (B) Deconvoluted ESI-MS of caspase-3. (C) Deconvoluted ESI-MS of caspase-3 after incubation with covalent activity-based probe (ABP) 13. Note that the active site, located on the large subunit, is modified. (D) Deconvoluted ESI-MS of caspase-3 after irradiation in the presence of benzophenone ψ(CH2NH) 10a, not resulting in covalent modification. […] (F) Structures of ψ(CH2NH) peptides 14 and 15 without photocrosslinker. (G) UV irradiation of ψ(CH2NH) peptides 14 and 15 in the presence of benzophenone leads to inhibition of caspase-3, as monitored by competitive ABPP. […] Ac-DEVD-aldehyde (100 nM) was used as a control compound, whereas 9a and 10a (10 μM) were irradiated for 10 min and reacted with sodium bisulfite for an additional 20 min before 30 min incubation with caspase-3 and read-out with a fluorescent caspase ABP.

caspase-3 [5] = test: Competitive ABPP with bisulfite aldehyde quenching; format: biochemical
Description: as §1
Compounds were incubated with or without irradiation (10 min) in PBS with or without 10 mM NaHSO3 and incubated for another 20 min before addition to caspase-3. After 30 min, ABP 13 was added (final concentration 1 μM) to label residual caspase activity. The samples were incubated for 30 min at room temperature, after which 1/3rd volume of 4× Laemmli buffer was added. Samples were processed in the same way as under Section 4.4.1.
as §7

[6] = LC-MS analysis of probes before and after UV irradiation; format: physicochemical; details: irradiation at 365 nm, gradient 10% to 95% acetonitrile with 0.1% formic acid
Protocol: as §6, §2
All materials were purchased from Sigma Aldrich GmbH (GmbH, Darmstadt, Germany), Carl Roth GmbH + Co. KG (Karlsruhe, Germany), Thermo Fischer Scientific Inc. (Dreieich, Germany), Rapp Polymere GmbH (Tübingen, Germany), Applichem GmbH (Darmstadt, Germany), VWR International GmbH (Darmstadt, Germany), Merck KGaA (Darmstadt, Germany), CreoSalus Inc. (Louisville, KY, USA), and Iris Biotech GmbH (Marktredwitz, Germany) and were used as received, unless otherwise noted. TLC was performed on pre-coated ALUGRAM SIL G plates with detection by a handheld UV lamp (254 nm) and subsequent staining with potassium permanganate, p-anisaldehyde, ninhydrin or cerium ammonium molybdate. LC-MS analysis was performed on a Thermo LCQ Fleet HPLC-MS/MS system using a gradient of 10% to 95% acetonitrile containing 0.1% formic acid. NMR spectra were recorded on a Bruker Avance DRX 400 spectrometer with tetramethylsilane as internal standard. High resolution ESI-FTMS was performed on a Thermo Scientific LTQ Orbitrap Velos Pro mass spectrometer.

[7] = 100 μM compound, irradiated at 365 nm for 30 min at room temperature
[8] = 10 μM compound, irradiated at 365 nm for 30 min at room temperature
[9] = 100 μM compound, non-irradiated

Substance | Inhibition of caspase-3 activity (caspase ABP labeling) (caspase-3 [2]; [7]) | Inhibition of caspase-3 activity (caspase ABP labeling) (caspase-3 [2]; [8]) | Inhibition of caspase-3 after UV pre-activation of compound (caspase-3 [4]) | Change of probe upon UV irradiation (LC-MS before and after) [6] | other results
Hexynoyl-Asp-Glu-Val-Aspψ(CH2NH)-Ala-NH2 [compound 15] | – | – | – | – | Inhibition of caspase-3 after irradiation with benzophenone (caspase-3 [1]): still led to inhibition
Hexynoyl-Asp-Glu-Val-Aspψ(CH2NH)-Ala-p-azido-Phe-NH2 [10c] | did not show any inhibition | – | – | – | –
Hexynoyl-Bpa-Asp-Glu-Val-Aspψ(CH2NH)-Ala-NH2 [9a] | – | complete inhibition | still inhibited | did not show obvious changes | Inhibition of caspase-3 activity (caspase ABP labeling) (caspase-3 [2]; 10 μM compound, non-irradiated): no decrease in caspase ABP labeling; Inhibition of Ac-DEVD-AMC cleavage by caspase-3 (caspase-3 [3]; irradiated at 365 nm for 30 min at room temperature): complete blockage of substrate processing; Inhibition of Ac-DEVD-AMC cleavage by caspase-3 (caspase-3 [3]; not irradiated): little to no inhibition; Inhibition of caspase-3 by irradiated sample exposed to sodium bisulfite (caspase-3 [5]; 10 μM, irradiated 10 min, reacted with 10 mM NaHSO3 for 20 min, then 30 min with caspase-3, fluorescent ABP read-out): lose their inhibitory capacity
Acetyl-Asp-Glu-Val-Aspψ(CH2NH)-Ala-NH2 [compound 14] | – | – | – | – | Inhibition of caspase-3 after irradiation with benzophenone (caspase-3 [1]): still led to inhibition; Requirement for inhibition of caspase-3 (caspase-3 [1]; with or without benzophenone (BP) and UV irradiation): needs both BP and UV irradiation
Hexynoyl-p-azido-Phe-Asp-Glu-Val-Aspψ(CH2NH)-Ala-NH2 [9c] | did not show any inhibition | – | – | – | –
Hexynoyl-Asp-Glu-Val-Aspψ(CH2NH)-Ala-photoLeu-NH2 [10b] | complete inhibition | – | still inhibited | loss of nitrogen | Inhibition of caspase-3 activity (caspase ABP labeling) (caspase-3 [2]; [9]): no decrease in caspase ABP labeling
Ac-DEVD-aldehyde [Ac-DEVD peptide aldehyde, reference compound] | – | – | – | – | Inhibition of caspase-3 (caspase-3 [5]; 100 nM, without bisulfite, 30 min incubation with caspase-3, fluorescent ABP read-out): efficiently inhibits caspase-3
Hexynoyl-photoLeu-Asp-Glu-Val-Aspψ(CH2NH)-Ala-NH2 [9b] | complete inhibition | – | still inhibited | loss of nitrogen | Inhibition of caspase-3 activity (caspase ABP labeling) (caspase-3 [2]; [9]): no decrease in caspase ABP labeling
Hexynoyl-Asp-Glu-Val-Asp(triazolo)-Ala-Bpa-Gly-NH2 [12a] | – | some inhibition | – | – | Inhibition of caspase-3 (competitive ABPP, Figure S1) (caspase-3 [2]): inhibition that is nearly quantitative
Hexynoyl-Bpa-Asp-Glu-Val-Asp(triazolo)-Ala-NH2 [11a] | – | did not | – | – | Inhibition of caspase-3 (competitive ABPP, Figure S1) (caspase-3 [2]): not show efficient inhibition
